Data: ChEMBL document CHEMBL5050844 (2019)

What was measured:
[1] = Induction of anti-CD3/CD28 antibodies-stimulated human T cell activation at 1 uM assessed fold increase in CD25 expression measured by ELISA assay; assay type: functional, T cell line
[2] = Induction of activation of human CD56+ CD3- NK cells co-cultured with human K562 cells in 1:1 ratio and assessed as increase in IFN-gamma secretion at 0.625 uM measured by ELISA assay; assay type: functional, Natural killer cell
[3] = Induction of activation of human CD56+ CD3- NK cells co-cultured with human K562 cells in 1:1 ratio and assessed as increase in TNF-alpha secretion at 2.5 uM measured by ELISA assay; assay type: functional, Natural killer cell
[4] = Induction of anti-CD3 antibodies-stimulated human exhausted T cell activation assessed fold increase in IL-2 secretion measured by ELISA assay; assay type: functional, T cell line; further: reference of the scale not given here
[5] = Induction of anti-CD3 antibodies-stimulated human exhausted T cell activation assessed fold increase in IFN-gamma secretion measured by ELISA assay; assay type: functional, T cell line; further: reference of the scale not given here
[6] = Induction of anti-CD3/CD28 antibodies-stimulated human anergic T cell activation at 1.11 uM assessed fold increase in IFN-gamma secretion measured by ELISA assay; assay type: functional, T cell line
[7] = Induction of anti-CD3 antibodies-stimulated human T cell activation at 1.11 uM assessed fold increase in GM-CSF secretion measured by ELISA assay; assay type: functional, T cell line; further: reference of the scale not given here
[8] = Induction of anti-CD3/CD28 antibodies-stimulated human CD4+ T cell activation at 1.11 uM assessed fold increase in cell proliferation measured by flow cytometry analysis; assay type: functional, T cell line
[9] = Induction of anti-CD3/CD28 antibodies-stimulated human T cell activation at 4 uM assessed fold increase in CD25 expression measured by ELISA assay; assay type: functional, T cell line
[10] = Induction of anti-CD3 antibodies-stimulated human T cell activation at 8 uM assessed fold increase in CD25 expression measured by ELISA assay; assay type: functional, T cell line; further: reference of the scale not given here
[11] = Induction of activation of human CD56+ CD3- NK cells co-cultured with human K562 cells in 1:1 ratio and assessed as increase in TNF-alpha secretion at 0.625 uM measured by ELISA assay; assay type: functional, Natural killer cell
[12] = test system: B cell; assay: Induction of anti-IgM-stimulated human CD20+ B cell activation at 10 to 1000 uM assessed as increase in CD69 expression measured as mean fluorescence intensity AUC by flow cytometry analysis; assay type: functional, cell-based; settings: dose 10-1000 µM
[13] = Induction of anti-CD3/CD28 antibodies-stimulated human anergic T cell activation at 10 uM assessed fold increase in IFN-gamma secretion measured by ELISA assay; assay type: functional, T cell line
[14] = Induction of anti-CD3/CD28 antibodies-stimulated human CD4+ T cell activation at 10 uM assessed fold increase in cell proliferation measured by flow cytometry analysis; assay type: functional, T cell line
[15] = Induction of anti-CD3/CD28 antibodies-stimulated human T cell activation at 1.11 uM assessed fold increase in GM-CSF secretion measured by ELISA assay; assay type: functional, T cell line
[16] = Induction of anti-CD3/CD28 antibodies-stimulated human T cell activation at 1 uM assessed fold increase in IL-2 secretion measured by ELISA assay; assay type: functional, T cell line
[17] = Induction of anti-CD3/CD28 antibodies-stimulated human CD8+ T cell activation at 1.11 uM assessed fold increase in cell proliferation measured by flow cytometry analysis; assay type: functional, T cell line
[18] = Induction of allogenic human T cell activation at 3 uM assessed fold increase in cell proliferation; assay type: functional, T cell line
[19] = Induction of anti-CD3 antibodies-stimulated human T cell activation at 1.11 uM assessed fold increase in TNF-alpha secretion measured by ELISA assay; assay type: functional, T cell line; further: reference of the scale not given here
[20] = Induction of anti-CD3/CD28 antibodies-stimulated human CD8+ T cell activation at 10 uM assessed fold increase in cell proliferation measured by flow cytometry analysis; assay type: functional, T cell line
[21] = Induction of anti-CD3 antibodies-stimulated human CD4+ T cell activation at 1.11 uM assessed fold increase in CD69 expression measured by flow cytometry analysis; assay type: functional, T cell line; further: reference of the scale not given here
[22] = Induction of anti-CD3/CD28 antibodies-stimulated human T cell activation at 10 uM assessed fold increase in TNF-alpha secretion measured by ELISA assay; assay type: functional, T cell line
[23] = Induction of activation of human CD56+ CD3- NK cells co-cultured with human K562 cells in 1:1 ratio and assessed as increase in IFN-gamma secretion at 2.5 uM measured by ELISA assay; assay type: functional, Natural killer cell
[24] = Induction of activation of human CD56+ CD3- NK cells co-cultured with human K562 cells in 1:1 ratio and assessed as increase in TNF-alpha secretion at 10 uM measured by ELISA assay; assay type: functional, Natural killer cell
[25] = Induction of anti-CD3/CD28 antibodies-stimulated human CD8+ T cell activation at 10 uM assessed fold increase in CD69 expression measured by flow cytometry analysis; assay type: functional, T cell line
[26] = Induction of anti-CD3 antibodies-stimulated human T cell activation at 1 uM assessed fold increase in CD25 expression measured by ELISA assay; assay type: functional, T cell line; further: reference of the scale not given here
[27] = Induction of anti-CD3 antibodies-stimulated human T cell activation at 10 uM assessed fold increase in TNF-alpha secretion measured by ELISA assay; assay type: functional, T cell line; further: reference of the scale not given here
[28] = Induction of anti-CD3/CD28 antibodies-stimulated human T cell activation at 0.3 uM assessed fold increase in IL-2 secretion measured by ELISA assay; assay type: functional, T cell line
[29] = Induction of anti-CD3 antibodies-stimulated human T cell activation at 1.11 uM assessed fold increase in IFN-gamma secretion measured by ELISA assay; assay type: functional, T cell line; further: reference of the scale not given here
[30] = Induction of anti-CD3/CD28 antibodies-stimulated human CD4+ T cell activation at 10 uM assessed fold increase in CD69 expression measured by flow cytometry analysis; assay type: functional, T cell line
[31] = Induction of anti-CD3/CD28 antibodies-stimulated human T cell activation at 4 uM assessed fold increase in IL-2 secretion measured by ELISA assay; assay type: functional, T cell line
[32] = Induction of anti-CD3 antibodies-stimulated human CD8+ T cell activation at 1.11 uM assessed fold increase in CD69 expression measured by flow cytometry analysis; assay type: functional, T cell line; further: reference of the scale not given here
[33] = Induction of anti-CD3/CD28 antibodies-stimulated human T cell activation at 1.11 uM assessed fold increase in TNF-alpha secretion measured by ELISA assay; assay type: functional, T cell line
[34] = Induction of anti-CD3/CD28 antibodies-stimulated human anergic T cell activation at 0.37 uM assessed fold increase in IFN-gamma secretion measured by ELISA assay; assay type: functional, T cell line
[35] = Induction of anti-CD3/CD28 antibodies-stimulated human CD4+ T cell activation at 1.11 uM assessed fold increase in CD69 expression measured by flow cytometry analysis; assay type: functional, T cell line
[36] = Induction of allogenic human T cell activation at 10 uM assessed fold increase in cell proliferation; assay type: functional, T cell line
[37] = Induction of activation of human CD56+ CD3- NK cells co-cultured with human K562 cells in 1:1 ratio and assessed as increase in IFN-gamma secretion at 10 uM measured by ELISA assay; assay type: functional, Natural killer cell
[38] = Induction of anti-CD3 antibodies-stimulated human CD8+ T cell activation at 10 uM assessed fold increase in CD69 expression measured by flow cytometry analysis; assay type: functional, T cell line; further: reference of the scale not given here

SMILES	fold change (FC) [1]	fold change (FC) [2]	fold change (FC) [3]	fold change (FC) [4]	fold change (FC) [5]	fold change (FC) [6]	fold change (FC) [7]	fold change (FC) [8]	fold change (FC) [9]	fold change (FC) [10]	fold change (FC) [11]	AUC [12]	fold change (FC) [13]	fold change (FC) [14]	fold change (FC) [15]	fold change (FC) [16]	fold change (FC) [17]	fold change (FC) [18]	fold change (FC) [19]	fold change (FC) [20]	also measured
Cn1cnnc1[C@@H]1C[C@@H]1c1cccc(N2Cc3c(cccc3C(F)(F)F)C2=O)c1	>=1.76	2.01	1.01	2.51	1.41	<=2.5	<=1.5	<=2	>=1.76	>=1.001	1.01	0.5	<=2.5	>4	1.51	1.01	<=2	<=2	<=1.5	2.01	fold change (FC) [21]: <=1.2; fold change (FC) [22]: 2.01; fold change (FC) [23]: 1.01; fold change (FC) [24]: 1.01; fold change (FC) [25]: 1.201; fold change (FC) [26]: 0.601; fold change (FC) [27]: <=1.5; fold change (FC) [28]: <=1; fold change (FC) [29]: <=2; fold change (FC) [30]: 1.201; fold change (FC) [31]: 2.51; fold change (FC) [32]: <=1.2; fold change (FC) [33]: <=1.5; fold change (FC) [34]: <=2.5; fold change (FC) [35]: <=1.2; fold change (FC) [36]: <=2; fold change (FC) [37]: 2.01; fold change (FC) [38]: <=1.2
C[C@H](Cc1nncn1C)c1cccc(N2Cc3c(cc(CN4CC[C@H](F)C4)cc3C(F)(F)F)C2=O)c1	1.31	2.01	>=5	>3.01	>1.61	>4.01	2.01	>4	1.31	>=1.001	2.01	1.01	>4.01	>4	>4	>=7.5	>4	2.01	2.01	>4	fold change (FC) [21]: >1.601; fold change (FC) [22]: 2.01; fold change (FC) [23]: >=5; fold change (FC) [24]: 2.01; fold change (FC) [25]: 1.201; fold change (FC) [26]: >=1.001; fold change (FC) [27]: 1.51; fold change (FC) [28]: 5; fold change (FC) [29]: 3.01; fold change (FC) [30]: >1.601; fold change (FC) [31]: >=7.5; fold change (FC) [32]: 1.401; fold change (FC) [33]: 2.01; fold change (FC) [34]: >4.01; fold change (FC) [35]: >1.601; fold change (FC) [36]: >3; fold change (FC) [37]: >=5; fold change (FC) [38]: 1.401
Cn1cnnc1CC1(c2cccc(NC(=O)c3nc4c(C(F)(F)F)cccc4[nH]3)c2)COC1	1.51	2.01	1.01	>3.01	1.41	2.51	<=1.5	>4	1.51	>=1.001	1.01	0.5	>4.01	>4	1.51	5	3.01	<=2	1.51	3.01	fold change (FC) [21]: >1.601; fold change (FC) [22]: 2.01; fold change (FC) [23]: 1.01; fold change (FC) [24]: 2.01; fold change (FC) [25]: 1.201; fold change (FC) [26]: 0.801; fold change (FC) [27]: 1.51; fold change (FC) [28]: 2.51; fold change (FC) [29]: <=2; fold change (FC) [30]: >1.601; fold change (FC) [31]: >=7.5; fold change (FC) [32]: 1.201; fold change (FC) [33]: 1.51; fold change (FC) [34]: <=2.5; fold change (FC) [35]: 1.401; fold change (FC) [36]: <=2; fold change (FC) [37]: 2.01; fold change (FC) [38]: 1.401
